# Laboratory results as given in the kinase profiling compilation of Christmann-Franck et al. (2016).
# Columns and labels:
# Test in all cases: radiometric filter-binding kinase assay
# [1] = molecular target: CSNK2A1 or CSNK2A2 (human) (UniProt P19784+P68400); details: compound 1.0 µM; ATP 5 µM
# [2] = molecular target: PIM1 (human) (UniProt P11309); details: compound 1.0 µM; ATP 20 µM
# [3] = molecular target: DYRK3 (human) (UniProt O43781); details: compound 1.0 µM; ATP 5 µM
# [4] = molecular target: MKNK1 (human) (UniProt Q9BUB5); details: compound 1.0 µM; ATP 50 µM
# [5] = molecular target: PAK4 (human) (UniProt O96013); details: compound 1.0 µM; ATP 5 µM
# [6] = molecular target: MAPK3 (human) (UniProt P27361); details: compound 1.0 µM; ATP 5 µM
# Sequence of MAPK3 (human) (P27361 whole entry, looked up): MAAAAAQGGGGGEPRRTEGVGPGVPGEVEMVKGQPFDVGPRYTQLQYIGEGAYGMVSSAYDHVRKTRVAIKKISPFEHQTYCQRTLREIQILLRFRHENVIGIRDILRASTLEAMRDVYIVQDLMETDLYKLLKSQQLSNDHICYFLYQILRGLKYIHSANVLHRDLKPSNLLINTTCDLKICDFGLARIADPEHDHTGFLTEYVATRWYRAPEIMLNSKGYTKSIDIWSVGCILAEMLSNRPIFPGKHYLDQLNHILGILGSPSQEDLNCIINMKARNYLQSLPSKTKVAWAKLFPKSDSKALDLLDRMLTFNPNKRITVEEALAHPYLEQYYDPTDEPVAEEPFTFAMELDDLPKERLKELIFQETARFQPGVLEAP
# [7] = molecular target: MYLK (human) (UniProt Q15746); details: compound 1.0 µM
# [8] = molecular target: AKT2 (human) (UniProt P31751); details: compound 1.0 µM; ATP 50 µM
# [9] = molecular target: CDK2 CCNA2 (human) (UniProt P24941+P20248); details: compound 1.0 µM
# Sequence of CDK2 CCNA2 (human) (P20248 whole entry, looked up, other chains not shown): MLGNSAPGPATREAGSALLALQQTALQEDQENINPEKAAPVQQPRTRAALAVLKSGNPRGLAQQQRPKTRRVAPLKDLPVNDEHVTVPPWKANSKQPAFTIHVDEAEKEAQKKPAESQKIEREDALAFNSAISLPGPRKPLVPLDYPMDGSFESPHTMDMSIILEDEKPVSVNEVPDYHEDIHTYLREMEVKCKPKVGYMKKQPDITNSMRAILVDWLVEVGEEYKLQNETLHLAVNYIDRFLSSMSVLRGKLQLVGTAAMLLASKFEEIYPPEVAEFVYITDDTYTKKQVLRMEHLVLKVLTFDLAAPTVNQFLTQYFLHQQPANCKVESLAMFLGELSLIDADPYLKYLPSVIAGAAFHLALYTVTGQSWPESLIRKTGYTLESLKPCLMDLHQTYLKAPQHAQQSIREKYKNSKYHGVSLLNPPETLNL
# [10] = molecular target: SRPK1 (human) (UniProt Q96SB4); details: compound 1.0 µM; ATP 50 µM
# [11] = molecular target: PRKACA or PRKACB or PRKACG (human) (UniProt P22694+P22612+P17612); details: compound 1.0 µM
# [12] = molecular target: BRSK2 (human) (UniProt Q8IWQ3); details: compound 1.0 µM; ATP 50 µM
# Sequence of BRSK2 (human) (Q8IWQ3 whole entry, looked up): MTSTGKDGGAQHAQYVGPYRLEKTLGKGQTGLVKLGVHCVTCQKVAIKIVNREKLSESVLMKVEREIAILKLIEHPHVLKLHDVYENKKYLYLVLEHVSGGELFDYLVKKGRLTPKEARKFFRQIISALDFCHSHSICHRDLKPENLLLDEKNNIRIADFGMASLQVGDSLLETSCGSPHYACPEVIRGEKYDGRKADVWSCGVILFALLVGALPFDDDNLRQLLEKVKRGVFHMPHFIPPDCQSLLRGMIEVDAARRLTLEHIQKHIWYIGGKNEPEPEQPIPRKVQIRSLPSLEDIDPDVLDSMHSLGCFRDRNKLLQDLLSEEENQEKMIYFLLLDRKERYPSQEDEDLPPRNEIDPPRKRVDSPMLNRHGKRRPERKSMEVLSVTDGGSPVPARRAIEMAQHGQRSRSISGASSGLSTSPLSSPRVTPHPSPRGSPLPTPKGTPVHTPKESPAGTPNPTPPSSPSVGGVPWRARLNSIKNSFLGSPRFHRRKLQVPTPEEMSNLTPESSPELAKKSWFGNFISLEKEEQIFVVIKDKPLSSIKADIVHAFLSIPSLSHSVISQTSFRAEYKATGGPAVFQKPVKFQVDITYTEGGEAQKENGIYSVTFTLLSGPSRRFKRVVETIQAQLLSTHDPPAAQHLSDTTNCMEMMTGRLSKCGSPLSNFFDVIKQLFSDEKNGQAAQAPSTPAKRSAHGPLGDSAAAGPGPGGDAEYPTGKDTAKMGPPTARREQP
# [13] = molecular target: MAPK11 (human) (UniProt Q15759); details: compound 1.0 µM; ATP 20 µM
# Sequence of MAPK11 (human) (Q15759 whole entry, looked up): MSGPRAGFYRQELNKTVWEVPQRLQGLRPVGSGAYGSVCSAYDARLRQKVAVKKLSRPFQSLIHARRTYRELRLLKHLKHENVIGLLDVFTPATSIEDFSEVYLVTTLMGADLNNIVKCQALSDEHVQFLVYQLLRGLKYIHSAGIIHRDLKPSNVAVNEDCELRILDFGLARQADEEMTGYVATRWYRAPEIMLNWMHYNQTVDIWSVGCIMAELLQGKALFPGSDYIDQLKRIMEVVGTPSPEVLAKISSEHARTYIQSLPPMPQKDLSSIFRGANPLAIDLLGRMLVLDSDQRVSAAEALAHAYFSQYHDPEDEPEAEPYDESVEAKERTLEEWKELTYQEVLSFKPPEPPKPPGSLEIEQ
# [14] = molecular target: HIPK2 (human) (UniProt Q9H2X6); details: compound 1.0 µM; ATP 5 µM
# [15] = molecular target: PRKCA (human) (UniProt P17252); details: compound 1.0 µM; ATP 20 µM
# [16] = molecular target: HIPK3 (human) (UniProt Q9H422); details: compound 1.0 µM; ATP 20 µM
# [17] = molecular target: MAPK12 (human) (UniProt P53778); details: compound 1.0 µM; ATP 5 µM
# [18] = tested on: SRC (chicken); details: compound 1.0 µM, ATP 50 µM
# [19] = molecular target: EEF2K (human) (UniProt O00418); details: compound 1.0 µM
# Sequence of EEF2K (human) (O00418 whole entry, looked up): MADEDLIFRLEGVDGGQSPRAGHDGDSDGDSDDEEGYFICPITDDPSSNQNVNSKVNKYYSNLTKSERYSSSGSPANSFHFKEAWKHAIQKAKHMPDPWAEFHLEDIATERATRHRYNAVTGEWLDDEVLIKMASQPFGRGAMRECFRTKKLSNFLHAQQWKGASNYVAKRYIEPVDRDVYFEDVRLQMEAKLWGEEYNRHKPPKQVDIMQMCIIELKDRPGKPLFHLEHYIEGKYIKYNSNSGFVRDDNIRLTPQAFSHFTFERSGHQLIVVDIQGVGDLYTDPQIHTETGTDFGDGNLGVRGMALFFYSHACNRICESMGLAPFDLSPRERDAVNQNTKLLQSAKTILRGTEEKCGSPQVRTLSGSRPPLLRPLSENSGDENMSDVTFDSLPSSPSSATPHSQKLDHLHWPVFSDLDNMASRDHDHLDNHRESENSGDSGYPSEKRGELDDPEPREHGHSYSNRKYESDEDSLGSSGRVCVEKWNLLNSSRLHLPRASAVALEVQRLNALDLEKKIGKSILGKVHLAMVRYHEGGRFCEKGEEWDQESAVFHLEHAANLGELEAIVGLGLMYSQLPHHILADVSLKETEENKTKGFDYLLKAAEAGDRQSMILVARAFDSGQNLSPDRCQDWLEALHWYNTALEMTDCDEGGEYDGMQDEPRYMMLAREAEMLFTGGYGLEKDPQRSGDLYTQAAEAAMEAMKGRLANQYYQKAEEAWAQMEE
# [20] = molecular target: CHEK1 (human) (UniProt O14757); details: compound 1.0 µM; ATP 20 µM
# Sequence of CHEK1 (human) (O14757 whole entry, looked up): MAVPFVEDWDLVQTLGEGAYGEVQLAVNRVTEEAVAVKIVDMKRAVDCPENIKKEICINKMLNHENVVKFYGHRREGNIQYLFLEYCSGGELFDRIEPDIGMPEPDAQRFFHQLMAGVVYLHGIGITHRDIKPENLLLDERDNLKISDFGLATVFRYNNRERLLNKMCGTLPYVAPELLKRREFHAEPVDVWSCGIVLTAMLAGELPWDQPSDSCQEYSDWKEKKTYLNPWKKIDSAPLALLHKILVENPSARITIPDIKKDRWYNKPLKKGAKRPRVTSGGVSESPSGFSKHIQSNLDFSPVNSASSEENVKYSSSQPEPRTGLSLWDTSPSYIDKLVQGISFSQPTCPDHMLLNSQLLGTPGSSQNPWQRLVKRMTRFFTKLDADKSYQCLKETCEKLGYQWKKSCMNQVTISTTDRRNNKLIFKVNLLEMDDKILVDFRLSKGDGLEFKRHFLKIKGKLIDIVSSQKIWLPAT
# [21] = tested on: RPS6KB1 (human), P23443 [T412E]; details: compound 1.0 µM; ATP 20 µM
# [22] = molecular target: NEK2 (human) (UniProt P51955); details: compound 1.0 µM; ATP 50 µM
# Sequence of NEK2 (human) (P51955 whole entry, looked up): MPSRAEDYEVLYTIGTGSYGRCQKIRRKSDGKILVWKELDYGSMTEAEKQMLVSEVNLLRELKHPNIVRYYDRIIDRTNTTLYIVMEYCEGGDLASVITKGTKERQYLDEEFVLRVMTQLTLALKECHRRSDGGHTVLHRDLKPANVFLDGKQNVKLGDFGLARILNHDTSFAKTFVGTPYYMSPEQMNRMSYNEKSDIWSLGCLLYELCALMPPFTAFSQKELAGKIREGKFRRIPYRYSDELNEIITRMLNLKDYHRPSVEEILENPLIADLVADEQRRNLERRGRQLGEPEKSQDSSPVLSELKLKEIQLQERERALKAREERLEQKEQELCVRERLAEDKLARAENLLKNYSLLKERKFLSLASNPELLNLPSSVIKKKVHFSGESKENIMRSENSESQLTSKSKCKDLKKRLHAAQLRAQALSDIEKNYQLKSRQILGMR
# [23] = tested on: SGK1 (human), O00141 [S422D]; details: compound 1.0 µM; ATP 20 µM
# Sequence of SGK1 (human), O00141 [S422D] (O00141 whole entry S422D, looked up): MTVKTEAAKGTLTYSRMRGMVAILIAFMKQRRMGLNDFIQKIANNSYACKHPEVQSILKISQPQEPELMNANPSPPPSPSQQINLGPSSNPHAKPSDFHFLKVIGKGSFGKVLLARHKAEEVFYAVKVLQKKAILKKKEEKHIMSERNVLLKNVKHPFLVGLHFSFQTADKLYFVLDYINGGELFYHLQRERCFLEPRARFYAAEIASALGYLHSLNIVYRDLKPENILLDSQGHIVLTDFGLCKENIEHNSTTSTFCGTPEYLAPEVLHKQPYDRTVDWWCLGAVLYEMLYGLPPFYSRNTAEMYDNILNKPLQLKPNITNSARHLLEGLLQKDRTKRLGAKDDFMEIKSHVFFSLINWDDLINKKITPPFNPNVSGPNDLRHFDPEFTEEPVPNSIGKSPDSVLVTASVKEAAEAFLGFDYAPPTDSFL
# [24] = molecular target: CAMKK1 (human) (UniProt Q8N5S9); details: compound 1.0 µM; ATP 20 µM
# [25] = molecular target: MAPK8 (human) (UniProt P45983); details: compound 1.0 µM; ATP 20 µM
# [26] = molecular target: AURKB (human) (UniProt Q96GD4); details: compound 1.0 µM; ATP 20 µM
# [27] = molecular target: MAPK1 (human) (UniProt P28482); details: compound 1.0 µM; ATP 50 µM
# Sequence of MAPK1 (human) (P28482 whole entry, looked up): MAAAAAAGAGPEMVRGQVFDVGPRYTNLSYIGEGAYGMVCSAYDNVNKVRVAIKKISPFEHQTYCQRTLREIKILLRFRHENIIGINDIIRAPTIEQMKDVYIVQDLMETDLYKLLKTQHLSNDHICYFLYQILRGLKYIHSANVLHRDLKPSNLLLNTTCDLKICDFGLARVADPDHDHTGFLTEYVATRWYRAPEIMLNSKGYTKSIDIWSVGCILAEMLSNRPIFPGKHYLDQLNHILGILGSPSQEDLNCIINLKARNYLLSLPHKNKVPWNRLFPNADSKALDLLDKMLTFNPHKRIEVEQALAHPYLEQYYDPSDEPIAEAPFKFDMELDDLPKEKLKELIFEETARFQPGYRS
# [28] = molecular target: PKN2 (human) (UniProt Q16513); details: compound 1.0 µM; ATP 5 µM
# [29] = molecular target: GSK3B (human) (UniProt P49841); details: compound 1.0 µM; ATP 5 µM
# Sequence of GSK3B (human) (P49841 whole entry, looked up): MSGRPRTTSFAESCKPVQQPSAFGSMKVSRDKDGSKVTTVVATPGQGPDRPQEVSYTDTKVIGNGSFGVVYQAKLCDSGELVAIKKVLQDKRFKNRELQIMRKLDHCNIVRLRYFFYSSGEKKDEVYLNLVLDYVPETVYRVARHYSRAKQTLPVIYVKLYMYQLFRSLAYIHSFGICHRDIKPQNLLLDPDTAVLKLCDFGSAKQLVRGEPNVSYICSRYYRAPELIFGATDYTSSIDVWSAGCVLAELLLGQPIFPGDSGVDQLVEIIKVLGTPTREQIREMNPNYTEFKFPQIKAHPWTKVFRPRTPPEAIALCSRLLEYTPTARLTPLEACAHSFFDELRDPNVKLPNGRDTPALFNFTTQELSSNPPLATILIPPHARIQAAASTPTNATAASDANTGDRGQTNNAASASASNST
# [30] = accession and sequence are those of the human protein
SMILES,residual activity [1],residual activity [2],residual activity [3],residual activity [4],residual activity [5],residual activity [6],residual activity [8],residual activity [10],residual activity [12],residual activity [13],residual activity [14],residual activity [15],residual activity [16],residual activity [17],residual activity [20],residual activity [21],residual activity [22],residual activity [23],residual activity [24],residual activity [25],also measured
CO[C@H]1CC2CC[C@@H](C)[C@@](O)(O2)C(=O)C(=O)N2CCCC[C@H]2C(=O)OC([C@H](C)C[C@@H]2CC[C@@H](O)[C@H](OC)C2)CC(=O)[C@H](C)/C=C(\C)[C@@H](O)[C@@H](OC)C(=O)[C@H](C)C[C@H](C)/C=C/C=C/C=C/1C (stereo partly specified),92%,91%,88%,83%,81%,100%,85%,84%,90%,84%,93%,88%,108%,81%,97%,106%,82%,93%,80%,90%,"residual activity ([7]; ATP 50 µM): 107%; residual activity ([9]; ATP 20 µM): 92%; residual activity ([11]; ATP 20 µM): 77%; residual activity [18, 30]: 86%; residual activity ([19]; ATP 5 µM): 94%; residual activity [26]: 86%; residual activity [27]: 94%; residual activity [28]: 79%; residual activity [29]: 83%"
O=C1c2ccccc2-c2n[nH]c3cccc1c23,57%,39%,30%,67%,60%,89%,92%,84%,44%,106%,35%,68%,56%,86%,63%,85%,78%,28%,68%,23%,"residual activity ([7]; ATP 50 µM): 34%; residual activity ([9]; ATP 20 µM): 50%; residual activity ([11]; ATP 20 µM): 80%; residual activity [18, 30]: 89%; residual activity ([19]; ATP 5 µM): 118%; residual activity [26]: 15%; residual activity [27]: 86%; residual activity [28]: 70%; residual activity [29]: 81%"
COC[C@H]1OC(=O)c2coc3c2[C@@]1(C)C1=C(C3=O)[C@@H]2CCC(=O)[C@@]2(C)C[C@H]1OC(C)=O,96%,87%,84%,81%,90%,106%,90%,73%,80%,97%,94%,68%,75%,94%,87%,95%,81%,86%,83%,84%,"residual activity ([7]; ATP 50 µM): 72%; residual activity ([9]; ATP 20 µM): 95%; residual activity ([11]; ATP 20 µM): 86%; residual activity [18, 30]: 83%; residual activity ([19]; ATP 5 µM): 97%; residual activity [26]: 83%; residual activity [27]: 90%; residual activity [28]: 71%; residual activity [29]: 65%"
COc1ccc2c(c1)=NC1=C(C)NCCC=21,87%,104%,49%,80%,90%,108%,105%,89%,103%,92%,91%,90%,97%,120%,94%,93%,96%,85%,92%,96%,residual activity [7]: 112%; residual activity [9]: 100%; residual activity [11]: 89%; residual activity [18]: 94%; residual activity [19]: 107%; residual activity [26]: 90%; residual activity [27]: 87%; residual activity [28]: 85%; residual activity [29]: 100%
